Assay results: PubChem BioAssay (NCI)
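All cell lines were grown in 96-well plates and treated with compound for 48 hours. GI50 marks 50% less growth. TGI denotes the concentration required for complete inhibition of growth.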

How the values were obtained:
Assay in all cases: inhibition of tumour cell growth, NCI panel, 48 h; in the data active = GI50 below about 0.43 µM; inactive = the rest
A498 renal = tested on: A498 renal
HCT-116 colon = tested on: HCT-116 colon
MCF7 breast = tested on: MCF7 breast
HS 578T breast = tested on: HS 578T breast
CAKI-1 renal = tested on: CAKI-1 renal
HOP-92 NSCLC = tested on: HOP-92 NSCLC
NCI-H522 lung = tested on: NCI-H522 lung
UACC-257 melanoma = tested on: UACC-257 melanoma
HT29 colon = tested on: HT29 colon
EKVX NSCLC = tested on: EKVX NSCLC
MDA-MB-435 = tested on: MDA-MB-435
NCI/ADR-RES ovarian = tested on: NCI/ADR-RES ovarian
A549 NSCLC = tested on: A549 NSCLC
PC-3 prostate = tested on: PC-3 prostate
SK-MEL-28 melanoma = tested on: SK-MEL-28 melanoma
SK-MEL-5 melanoma = tested on: SK-MEL-5 melanoma
NCI-H23 lung = tested on: NCI-H23 lung
MALME-3M melanoma = tested on: MALME-3M melanoma
T-47D breast = tested on: T-47D breast
HCT-15 colon = tested on: HCT-15 colon
NCI-H460 lung = tested on: NCI-H460 lung
HCC-2998 colon = tested on: HCC-2998 colon
COLO 205 colon = tested on: COLO 205 colon
SNB-75 CNS = tested on: SNB-75 CNS
DU-145 prostate = tested on: DU-145 prostate
SF-268 CNS = tested on: SF-268 CNS
OVCAR-3 ovarian = tested on: OVCAR-3 ovarian
RPMI-8226 leukemia = tested on: RPMI-8226 leukemia
TK-10 renal = tested on: TK-10 renal
OVCAR-8 ovarian = tested on: OVCAR-8 ovarian
SN12C renal = tested on: SN12C renal
SK-OV-3 ovarian = tested on: SK-OV-3 ovarian
RXF 393 renal = tested on: RXF 393 renal
IGROV1 ovarian = tested on: IGROV1 ovarian
UO-31 renal = tested on: UO-31 renal
MOLT-4 leukemia = tested on: MOLT-4 leukemia
HOP-62 NSCLC = tested on: HOP-62 NSCLC
UACC-62 melanoma = tested on: UACC-62 melanoma
KM12 colon = tested on: KM12 colon
SNB-19 CNS = tested on: SNB-19 CNS
M14 melanoma = tested on: M14 melanoma
MDA-MB-231 breast = tested on: MDA-MB-231 breast
786-0 renal = tested on: 786-0 renal
SW-620 colon = tested on: SW-620 colon
SK-MEL-2 melanoma = tested on: SK-MEL-2 melanoma
K-562 leukemia = tested on: K-562 leukemia
CCRF-CEM leukemia = tested on: CCRF-CEM leukemia
BT-549 breast = tested on: BT-549 breast
NCI-H226 lung = tested on: NCI-H226 lung
ACHN renal = tested on: ACHN renal
SF-295 CNS = tested on: SF-295 CNS
HL-60(TB) leukemia = tested on: HL-60(TB) leukemia
OVCAR-5 ovarian = tested on: OVCAR-5 ovarian
SF-539 CNS = tested on: SF-539 CNS
U251 CNS = tested on: U251 CNS
OVCAR-4 ovarian = tested on: OVCAR-4 ovarian
LOX IMVI melanoma = tested on: LOX IMVI melanoma

C[C@@H]1CC[C@H]2C(COC/C=C/COCC3=C(C(F)(F)F)O[C@@H]4O[C@@]5(C)CC[C@H]6[C@H](C)CC[C@@H]3[C@@]46OO5)=C(C(F)(F)F)O[C@@H]3O[C@@]4(C)CC[C@@H]1[C@]32OO4
> 58.3 µM: TGI (MCF7 breast)
14.2 µM: TGI (HCT-15 colon)
> 32.6 µM: TGI (OVCAR-8 ovarian)
0.753 µM: TGI (ACHN renal)
> 71.3 µM: TGI (NCI/ADR-RES ovarian)
> 47 µM: TGI (K-562 leukemia)
0.0468 µM: TGI (HL-60(TB) leukemia)
98.2 µM: TGI (IGROV1 ovarian)
0.865 µM: TGI (MDA-MB-231 breast)
> 50.1 µM: TGI (A549 NSCLC)
> 100 µM: TGI (A498 renal) | TGI (HCT-116 colon) | TGI (HS 578T breast) | TGI (NCI-H522 lung) | TGI (HT29 colon) | TGI (EKVX NSCLC) | TGI (SK-MEL-28 melanoma) | TGI (SK-MEL-5 melanoma) | TGI (T-47D breast) | TGI (NCI-H460 lung) | TGI (HCC-2998 colon) | TGI (SNB-75 CNS) | TGI (DU-145 prostate) | TGI (SF-268 CNS) | TGI (RPMI-8226 leukemia) | TGI (TK-10 renal) | TGI (SK-OV-3 ovarian) | TGI (UO-31 renal) | TGI (HOP-62 NSCLC) | TGI (UACC-62 melanoma) | TGI (SNB-19 CNS) | TGI (M14 melanoma) | TGI (786-0 renal) | TGI (SW-620 colon) | TGI (SK-MEL-2 melanoma) | TGI (BT-549 breast) | TGI (OVCAR-5 ovarian) | TGI (OVCAR-4 ovarian)
12.3 µM: TGI (NCI-H23 lung)
40.6 µM: TGI (MOLT-4 leukemia)
> 20.7 µM: TGI (RXF 393 renal)
inactive: GI50 (A498 renal) 1.54 µM | GI50 (NCI/ADR-RES ovarian) 3.14 µM | GI50 (SK-MEL-28 melanoma) 63.9 µM | GI50 (HCC-2998 colon) 0.472 µM | GI50 (SNB-75 CNS) 12.7 µM | GI50 (DU-145 prostate) 0.531 µM | GI50 (SK-OV-3 ovarian) > 100 µM | GI50 (RXF 393 renal) 1.64 µM | GI50 (IGROV1 ovarian) 1.27 µM | GI50 (UO-31 renal) 0.786 µM | GI50 (SNB-19 CNS) 0.542 µM | GI50 (OVCAR-4 ovarian) 0.518 µM
11.8 µM: TGI (UACC-257 melanoma)
> 21.4 µM: TGI (SF-539 CNS)
0.191 µM: TGI (NCI-H226 lung)
0.179 µM: TGI (U251 CNS)
0.0445 µM: TGI (MALME-3M melanoma)
> 38.4 µM: TGI (CCRF-CEM leukemia)
0.685 µM: TGI (SN12C renal)
0.0328 µM: TGI (KM12 colon)
0.336 µM: TGI (OVCAR-3 ovarian)
active: GI50 (HCT-116 colon) < 0.01 µM | GI50 (MCF7 breast) 0.028 µM | GI50 (HS 578T breast) 0.0429 µM | GI50 (CAKI-1 renal) 0.158 µM | GI50 (HOP-92 NSCLC) < 0.032 µM | GI50 (NCI-H522 lung) 0.327 µM | GI50 (UACC-257 melanoma) 0.0538 µM | GI50 (HT29 colon) 0.0169 µM | GI50 (EKVX NSCLC) 0.072 µM | GI50 (MDA-MB-435) < 0.012 µM | GI50 (A549 NSCLC) < 0.0138 µM | GI50 (PC-3 prostate) < 0.01 µM | GI50 (SK-MEL-5 melanoma) 0.0866 µM | GI50 (NCI-H23 lung) < 0.0178 µM | GI50 (MALME-3M melanoma) < 0.01 µM | GI50 (HCT-15 colon) 0.038 µM | GI50 (NCI-H460 lung) 0.0226 µM | GI50 (COLO 205 colon) < 0.0174 µM | GI50 (SF-268 CNS) 0.0846 µM | GI50 (OVCAR-3 ovarian) < 0.0114 µM | GI50 (RPMI-8226 leukemia) < 0.01 µM | GI50 (TK-10 renal) 0.036 µM | GI50 (OVCAR-8 ovarian) < 0.0206 µM | GI50 (SN12C renal) 0.0191 µM | GI50 (MOLT-4 leukemia) < 0.01 µM | GI50 (UACC-62 melanoma) 0.0781 µM | GI50 (KM12 colon) < 0.01 µM | GI50 (MDA-MB-231 breast) < 0.0416 µM | GI50 (SW-620 colon) 0.0101 µM | GI50 (SK-MEL-2 melanoma) 0.387 µM | GI50 (K-562 leukemia) < 0.0116 µM | GI50 (CCRF-CEM leukemia) 0.0148 µM | GI50 (BT-549 breast) 0.0644 µM | GI50 (NCI-H226 lung) 0.0199 µM | GI50 (ACHN renal) 0.0468 µM | GI50 (SF-295 CNS) < 0.0244 µM | GI50 (HL-60(TB) leukemia) < 0.01 µM | GI50 (OVCAR-5 ovarian) 0.0175 µM | GI50 (SF-539 CNS) < 0.0242 µM | GI50 (U251 CNS) < 0.01 µM

O=C(CSCC(=O)N/N=C/c1cccc(OCc2ccccc2)c1)N/N=C/c1cccc(OCc2ccccc2)c1
97.2 µM: TGI (HOP-92 NSCLC)
> 69.7 µM: TGI (A498 renal)
46.4 µM: TGI (MOLT-4 leukemia)
> 92.8 µM: TGI (SK-MEL-5 melanoma)
> 100 µM: TGI (HCT-116 colon) | TGI (MCF7 breast) | TGI (HS 578T breast) | TGI (CAKI-1 renal) | TGI (NCI-H522 lung) | TGI (HT29 colon) | TGI (EKVX NSCLC) | TGI (MDA-MB-435) | TGI (NCI/ADR-RES ovarian) | TGI (A549 NSCLC) | TGI (SK-MEL-28 melanoma) | TGI (LOX IMVI melanoma) | TGI (NCI-H23 lung) | TGI (MALME-3M melanoma) | TGI (T-47D breast) | TGI (HCT-15 colon) | TGI (NCI-H460 lung) | TGI (HCC-2998 colon) | TGI (COLO 205 colon) | TGI (SNB-75 CNS) | TGI (DU-145 prostate) | TGI (SF-268 CNS) | TGI (OVCAR-3 ovarian) | TGI (TK-10 renal) | TGI (OVCAR-8 ovarian) | TGI (SK-OV-3 ovarian) | TGI (RXF 393 renal) | TGI (IGROV1 ovarian) | TGI (UO-31 renal) | TGI (HOP-62 NSCLC) | TGI (UACC-62 melanoma) | TGI (KM12 colon) | TGI (SNB-19 CNS) | TGI (M14 melanoma) | TGI (MDA-MB-231 breast) | TGI (786-0 renal) | TGI (SW-620 colon) | TGI (SK-MEL-2 melanoma) | TGI (K-562 leukemia) | TGI (CCRF-CEM leukemia) | TGI (BT-549 breast) | TGI (NCI-H226 lung) | TGI (ACHN renal) | TGI (SF-295 CNS) | TGI (OVCAR-5 ovarian) | TGI (SF-539 CNS) | TGI (U251 CNS) | TGI (OVCAR-4 ovarian)
39.9 µM: TGI (RPMI-8226 leukemia)
inactive: GI50 (COLO 205 colon) 37.5 µM
97.8 µM: TGI (PC-3 prostate)
> 74 µM: TGI (SN12C renal)
> 85.1 µM: TGI (UACC-257 melanoma)
53.3 µM: TGI (HL-60(TB) leukemia)
